Test results reported in paper PMC7539012, “Hyperphosphorylated tau aggregation and cytotoxicity modulators screen identified prescription drugs linked to Alzheimer's disease and cognitive functions” (Scientific Reports, 2020).
Where a name gives a salt, the structure may show the parent alone.

What follows are compounds tested on T1, 1N4R p-tau (assay: p-tau aggregation modulator screen of 1280-compound library (ThS fluorescence net change over 16 h)). Settings: not given.
T1 construct: made in house; host or cells: E. coli (PIMAX system)
Assay type: biochemical
Design: key to PTAI>3SD: *: PTAI>3SD
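For ThS net change in this document: 30 µM compound with 6 µM p-tau over 16 h.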

Point of comparison: `CCc1c2c(nc3ccc(OC(=O)N4CCC(N5CCCCC5)CC4)cc13)-c1cc3c(c(=O)n1C2)COC(=O)[C@]3(O)CC.Cl.O.O.O` [Irinotecan hydrochloride trihydrate], ThS net change 281. Against it:
- C[C@@H]1C[C@@H]([C@H](O)CC2CC(=O)NC(=O)C2)C(=O)[C@@H](C)C1 [Cycloheximide] — higher, 442
- COc1cc(NC(C)CCCN)c2ncccc2c1 (centres unmarked) [Primaquine diphosphate] — lower, 250
- Cc1ccc(Cl)c(Nc2ccccc2C(=O)[O-])c1Cl.O.[Na+] — higher, 436
- CC[N+](CC)(CC(=O)Nc1c(C)cccc1C)Cc1ccccc1 [Denatonium benzoate] — higher, 448
- NCCCCCC(=O)O [Aminocaproic acid] — higher, 456
- CN(C)CCCN1c2ccccc2CCc2ccccc21 [Imipramine hydrochloride] — higher, 287
- COc1ccc(CCN(C)CCCC(C#N)(c2ccc(OC)c(OC)c2)C(C)C)cc1OC (centres unmarked) [Verapamil hydrochloride] — higher, 325

Same assay, conditions: 1280-compound library screen; ThS fluorescence net change over 16 h

Point of comparison: `CCCN[C@H]1CCc2nc(N)sc2C1` [Pramipexole dihydrochloride], ThS net change 385. Against it:
- COc1ccc(OC)c(C(O)C(C)N)c1 (centres unmarked) [Methoxamine hydrochloride] — higher, 405
- CC(C)NCC(O)COc1ccc(CC(N)=O)cc1 (stereo in doubt) [(R)-(+)-Atenolol] — higher, 395
- O=C(O)COC(=O)Cc1ccccc1Nc1c(Cl)cccc1Cl [Aceclofenac] — higher, 390
- CNCCc1ccccn1.CS(=O)(=O)O.CS(=O)(=O)O [Betahistine mesylate] — lower, 378
- CCCNC(C)C(=O)Nc1ccccc1C (centres unmarked) [Prilocaine hydrochloride] — lower, 378
- Nc1nc(=S)c2ncn([C@@H]3O[C@H](CO)[C@@H](O)[C@H]3O)c2[nH]1 [Thioguanosine] — the same, 385
- O=C(O)Cc1sc(-c2ccccc2)nc1-c1ccc(Cl)cc1 [Fentiazac] — lower, 382
- COc1ccccc1N1CCN(CCCNc2cc(=O)n(C)c(=O)n2C)CC1 [Urapidil hydrochloride] — higher, 388
- Nc1ccc(S(=O)(=O)c2ccc(N)cc2)cc1 [Dapsone] — lower, 382
- Cc1noc(NS(=O)(=O)c2ccc(N)cc2)c1C [Sulfisoxazole] — higher, 404
- COc1ccc(C(=O)N2CCCC2=O)cc1 [Aniracetam] — higher, 408
- CC1(C)OC(=O)NC1=O [Dimethadione] — lower, 381
- CC(O)(CS(=O)(=O)c1ccc(F)cc1)C(=O)Nc1ccc(C#N)c(C(F)(F)F)c1 (centres unmarked) [Bicalutamide] — higher, 388
- CC1(C)O[C@@H]2C[C@H]3[C@@H]4CCC5=CC(=O)CC[C@]5(C)[C@@]4(F)[C@@H](O)C[C@]3(C)[C@]2(C(=O)CCl)O1 [Halcinonide] — lower, 384
- CCN1CCCC(OC(=O)C(c2ccccc2)c2ccccc2)C1 (centres unmarked) [Piperidolate hydrochloride] — higher, 406
- C/C=C(/C(=C/C)c1ccc(O)cc1)c1ccc(O)cc1 [Dienestrol] — higher, 410
- COc1cc(C(=O)NC2CCCNC2)cc(OC)c1OC (centres unmarked) [Troxipide] — higher, 407
- C[C@H]1C[C@H]2[C@@H]3CCC4=CC(=O)C=C[C@]4(C)[C@@]3(F)[C@@H](O)C[C@]2(C)[C@@]1(O)C(=O)CO [Betamethasone] — higher, 395
- CN(C)CCC(c1ccc(Br)cc1)c1ccccn1 (centres unmarked) [Brompheniramine maleate] — lower, 379

Same assay, conditions: 1280-compound library screen; […]

With `Cc1ccsc1/C=C/C1=NCCCN1C` [Morantel tartrate] the ThS net change was 398.

Same assay, conditions: flag: p-tau aggregation inhibitor, ThS net change more than 3 SD from mean

In the case of `NS(=O)(=O)c1cc2c(cc1Cl)NC(CC1CCCC1)NS2(=O)=O` (centres unmarked) [Cyclopenthiazide], the “PTAI>3SD” value is reported as “*”.
With `CN1CCCC(n2nc(Cc3ccc(Cl)cc3)c3ccccc3c2=O)CC1` (centres unmarked) [Azelastine HCl] the “PTAI>3SD” value was “*”.

Same assay, conditions: library screen, ThS fluorescence net change over 16 h with p-tau

Point of comparison: `CN1CCCC(n2nc(Cc3ccc(Cl)cc3)c3ccccc3c2=O)CC1` (centres unmarked) [Azelastine HCl], ThS net change 0. Against it:
- [H]/N=C(\N/C(=N/[H])NCCCCCCNC(=N)NC(=N)Nc1ccc(Cl)cc1)Nc1ccc(Cl)cc1 [Chlorhexidine] — higher, 317
- NS(=O)(=O)c1cc2c(cc1Cl)NC(CC1CCCC1)NS2(=O)=O (centres unmarked) [Cyclopenthiazide] — the same, 0
- Oc1ccc(C2CNCCc3c2cc(O)c(O)c3Cl)cc1 (centres unmarked) [Fenoldopam] — higher, 310
- N[C@@H](Cc1cc(I)c(Oc2cc(I)c(O)c(I)c2)c(I)c1)C(=O)O [Thyroxine (L)] — higher, 301

Same assay, conditions: p-tau aggregation modulator screen of 1280-compound library; ThS fluorescence net change

Point of comparison: `Cc1c(O)c(=O)n(-c2ccccc2)n1C` [Antipyrine, 4-hydroxy], ThS net change 371. Against it:
- OCCN1CCN(CCCN2c3ccccc3Sc3ccc(C(F)(F)F)cc32)CC1 [Fluphenazine dihydrochloride] — lower, 370
- NC(=O)N/N=C/c1ccc([N+](=O)[O-])o1 [Nitrofural] — lower, 365
- Cc1oncc1C(=O)Nc1ccc(C(F)(F)F)cc1 [Leflunomide] — lower, 344
- CC(CN1c2ccccc2Sc2ccccc21)N(C)C (centres unmarked) [Promethazine hydrochloride] — lower, 330
- c1ccc(CNc2ncnc3nc[nH]c23)cc1 [Aminopurine, 6-benzyl] — lower, 348
- CC(=O)S[C@@H]1CC2=CC(=O)CC[C@]2(C)[C@H]2CC[C@@]3(C)[C@@H](CC[C@@]34CCC(=O)O4)[C@H]12 [Spironolactone] — higher, 372
- CN(C)CCOC(C)(c1ccccc1)c1ccccn1 (centres unmarked) [Doxylamine succinate] — lower, 367
- Nc1nc(NC2CC2)c2ncn([C@H]3C=C[C@@H](CO)C3)c2n1 [Abacavir Sulfate] — lower, 363
- CCn1cc(C(=O)O)c(=O)c2cnc(N3CCNCC3)nc21 [Pipemidic acid] — higher, 377
- CCN1CCN(C(=O)N[C@@H](C(=O)N[C@@H]2C(=O)N3C(C(=O)O)=C(CSc4nnnn4C)CS[C@H]23)c2ccc(O)cc2)C(=O)C1=O [Cefoperazone dihydrate] — lower, 363
- CCN1CCN(C(=O)N[C@@H](C(=O)N[C@@H]2C(=O)N3[C@@H]2SC(C)(C)[C@@H]3C(=O)O)c2ccccc2)C(=O)C1=O [Piperacillin sodium salt] — lower, 354
- CN1CCN(C(c2ccccc2)c2ccc(Cl)cc2)CC1 (centres unmarked) [Chlorcyclizine hydrochloride] — lower, 337
- COc1ccccc1N1CCN(CCCCNC(=O)c2ccc3ccccc3c2)CC1.Cl.Cl [DO 897/99] — higher, 374
- CN(C(=O)CN(CCO)CC(=O)N(C)C(C)(C)Cc1ccccc1)C(C)(C)Cc1ccccc1 [Oxethazaine] — lower, 329
- CN(C)CCN(Cc1cccs1)c1ccccn1 [Methapyrilene hydrochloride] — lower, 370
- CC[C@H]1OC(=O)C[C@@H](O)[C@H](C)[C@@H](O[C@@H]2O[C@H](C)[C@@H](O[C@H]3C[C@@](C)(O)[C@@H](O)[C@H](C)O3)[C@H](N(C)C)[C@H]2O)[C@@H](CC=O)C[C@@H](C)C(=O)/C=C/C(C)=C/[C@@H]1CO[C@@H]1O[C@H](C)[C@@H](O)[C@@H](OC)[C@H]1OC [Tylosin] — higher, 372
- COCC(=O)Nc1c(I)c(C(=O)NCC(O)CO)c(I)c(C(=O)N(C)CC(O)CO)c1I (centres unmarked) [Iopromide] — lower, 359

Same assay, conditions: p-tau aggregation modulator screen of 1280-compound library; […]

Point of comparison: `CC(C)(C)NCC(O)c1cc(Cl)c(N)c(Cl)c1` (centres unmarked) [Clenbuterol hydrochloride], ThS net change 349. Against it:
- C[C@@]12N[C@@H](Cc3ccccc31)c1ccccc12.O=C(O)/C=C\C(=O)O [(-)-MK 801 hydrogen maleate] — higher, 354

Same assay, conditions: p-tau aggregation modulator screen of the compound library, ThS fluorescence net change

Point of comparison: `N#CC(c1ccc(Cl)cc1)c1c(Cl)cc(-n2ncc(=O)[nH]c2=O)cc1Cl` (centres unmarked) [Diclazuril], ThS net change 507. Against it:
- CCC1(c2ccccc2)NC(=O)N(C)C1=O (centres unmarked) [Mephenytoin] — lower, 453
- CC(C)c1c(C(=O)Nc2ccccc2)c(-c2ccccc2)c(-c2ccc(F)cc2)n1CC[C@@H](O)C[C@@H](O)CC(=O)O [Atorvastatin] — lower, 488
- CC[C@@]1(O)C(=O)OCc2c1cc1n(c2=O)Cc2cc3c(CN(C)C)c(O)ccc3nc2-1 [Topotecan] — higher, 5499
- CN(C/C=C/C#CC(C)(C)C)Cc1cccc2ccccc12 [Terbinafine] — lower, 506
- CN(C)CCCSC(=N)N.Cl.Cl [Dimaprit dihydrochloride] — lower, 436
- NC1CCN(c2c(F)cc3c(=O)c(C(=O)O)cn(C4CC4)c3c2Cl)C1 (centres unmarked) [Clinafloxacin] — lower, 433
- C[N+](C)(C)CCOC(N)=O [Carbachol] — lower, 440
- CCCCc1oc2ccccc2c1C(=O)c1cc(I)c(OCCN(CC)CC)c(I)c1 [Amiodarone hydrochloride] — lower, 436
- CCOC(=O)C(C)(C)Oc1ccc(Cl)cc1 [Clofibrate] — lower, 461
- CC=CC1=C(C(=O)O)N2C(=O)[C@@H](NC(=O)[C@H](N)c3ccc(O)cc3)[C@H]2SC1 (mixture of isomers) [Cefprozil] — lower, 440
- COC(c1ccccc1)(c1ccccc1)[C@H](Oc1nc(C)cc(C)n1)C(=O)O [Ambrisentan] — lower, 506
- CC1CS(=O)(=O)CCN1/N=C/c1ccc([N+](=O)[O-])o1 (centres unmarked) [Nifurtimox] — higher, 588
- C#CCN[C@@H]1CCc2ccccc21 [Rasagiline] — lower, 447
- Cc1cc(-n2c(=O)[nH]c(=O)n(C)c2=O)ccc1Oc1ccc(SC(F)(F)F)cc1 [Toltrazuril] — higher, 511
- CC(C)(C)NC(=O)[C@@H]1C[C@@H]2CCCC[C@@H]2CN1C[C@@H](O)[C@H](Cc1ccccc1)NC(=O)[C@H](CC(N)=O)NC(=O)c1ccc2ccccc2n1 [Saquinavir mesylate] — higher, 568
- NC(=O)c1ncn([C@@H]2O[C@H](CO)[C@@H](O)[C@H]2O)n1 [Ribavirin] — lower, 458
- Josamycin — lower, 446
- CCN1CC(CCN2CCOCC2)C(c2ccccc2)(c2ccccc2)C1=O.Cl (centres unmarked) [Doxapram hydrochloride] — lower, 418
- CN(C)CCN(Cc1ccc(Cl)cc1)c1ccccn1.Cl [Chloropyramine hydrochloride] — lower, 421
- CN(C/C=C/c1ccccc1)Cc1cccc2ccccc12 [Naftifine hydrochloride] — higher, 539
